Laboratory results taken from US7625909B2, “Substituted quinazolinone compounds” (Novartis Vaccines and Diagnostics, Inc., priority 2003, dated 2009).
Like-named read-outs stand apart in the source and are kept apart here.

Test: Tissue half-life (t1/2) and Cmax in plasma, brain, kidney and liver after oral administration to CD-1 mice
Format: in vivo
Settings: 30 mg/kg oral gavage; for half-life: male, mouse
Description: In vivo studies were conducted to observe the effect of the compounds of formula IA, IB, IIA, and IIIB in the subject animal. Male CD-1 mice, body weight of 20 grams at arrival, were used in these studies. Mice were given 30 mg/kg of compound in HPMC/Tween solution or suspension via oral gavage. Plasma, brain, and liver samples were collected at time periods of 1, 2, 4, 8, and 24 hours post dosing. One mouse was used per time point. Thus, a total of 5 mice were used for each compound tested. For sample collection, mice were euthanized with CO2. Blood samples were taken by cardiac puncture and kept on ice. Brain and liver samples were collected immediately after bleeding and the samples were kept on dry ice. For calculation of tissue half-lives (t1/2s), the terminal rate constant k was estimated by the absolute value of the slope of a log-linear regression of the terminal phase of the tissue concentration-time profile. The tissue half-life t1/2 is In(2)/k.
The following table includes t1/2 data for plasma, brain, kidney, and liver obtained after oral administration.

[1] = brain, read-out: Tissue Half-Lives, Brain (converted)
[2] = liver, read-out: Tissue Half-Lives, Liver (converted)
[3] = plasma, read-out: Tissue Half-Lives, Plasma (converted)

| Structure (SMILES) | half-life [1] | half-life [2] | half-life [3] | Tissue Half-Lives, Kidney | also measured |
| --- | --- | --- | --- | --- | --- |
| COc1ccc(CCn2c(NC3CC3)nc3cc(NC(=N[C@H]4C[C@H]5C[C@@H]([C@@H]4C)C5(C)C)N4CC(=O)N[C@@H](C)C4)ccc3c2=O)c(F)c1 [Example 224, (3S)-N-{2-(cyclopropylamino)-3-[2-(2-fluoro-4-methoxyphenyl)ethyl]-4-oxo-3,4-dihydroquinazolin-7-yl}-3-methyl-5-oxo-N′-[(1S, 2S, 3S, 5R)-2,6,6-trimethylbicyclo[3.1.1]hept-3-yl]piperazine-1-carboximidamide] | – | – | – | – | Tissue Half-Lives, Liver (liver): 3.1 h |
| C[C@@H]1[C@@H](N=C(Nc2ccc3c(=O)n(CCc4ccc(Cl)cc4)c(C4CCCNC4)nc3c2)N2CC(=O)N[C@@H](C)C2)C[C@H]2C[C@@H]1C2(C)C (stereo partly drawn) [Example 241, (3S)-N-{3-[2-(4-chlorophenyl)ethyl]-4-oxo-2-piperidin-3-yl-3,4-dihydroquinazolin-7-yl}-3-methyl-5-oxo-N′-[(1S, 2S, 3S, 5R)-2,6,6-trimethylbicyclo[3.1.1]hept-3-yl]piperazine-1-carboximidamide] | 51 h | 17 h | 21 h | – | – |
| COc1ccc(CCn2c(-c3cccnc3)nc3cc(N/C(=N/C4C[C@H]5C[C@@H]([C@@H]4C)C5(C)C)N4CCN(C#N)[C@@H](C)C4)ccc3c2=O)c(F)c1 (stereo partly drawn) [Example 246, (3S)-4-cyano-N-{3-[2-(2-fluoro-4-methoxyphenyl)ethyl]-4-oxo-2-pyridin-3-yl-3,4-dihydroquinazolin-7-yl}-3-methyl-N-[(1S, 2S, 3S, 5R)-2,6,6-trimethylbicyclo[3.1.1]hept-3-yl]piperazine-1-carboximidamide] | – | – | – | – | Tissue Half-Lives, Brain (brain): 5.8 h |

The next lines start with results.

| half-life [1] | half-life [2] | half-life [3] | Tissue Half-Lives, Kidney | Structure (SMILES) | also measured |
| --- | --- | --- | --- | --- | --- |
| 15 h | 4.3 h | 5.4 h | – | COc1ccc(CCn2c(C#N)nc3cc(NC(=NC4C[C@H]5C[C@@H]([C@@H]4C)C5(C)C)N4CCN[C@@H](CF)C4)ccc3c2=O)c(F)c1 (stereo partly drawn) [Example 256, (3R)-N-{2-cyano-3-[2-(2-fluoro-4-methoxyphenyl)ethyl]-4-oxo-3,4-dihydroquinazolin-7-yl}-3-(fluoromethyl)-N′-[(1S, 2S, 5R)-2,6,6-trimethylbicyclo[3.1.1]hept-3-yl]piperazine-1-carboximidamide] | – |
| – | – | – | 7.3 h | C[C@@H]1[C@@H](/N=C(/Nc2ccc3c(=O)n(CCc4ccc(Cl)cc4Cl)cnc3c2)N2CCNC(=O)C2)C[C@@H]2C[C@H]1C2(C)C [Example 260, N-{3-[2-(2,4-dichlorophenyl)ethyl]-4-oxo-3,4-dihydroquinazolin-7-yl}-3-oxo-N′-[(1R, 2S, 3S, 5S)-2,6,6-trimethylbicyclo[3.1.1]hept-3-yl]piperazine-1-carboximidamide] | – |
| – | – | – | 3.3 h | COc1ccc(CCn2c(-c3cccnc3)nc3cc(N/C(=N/[C@H]4C[C@@H]5C[C@H]([C@@H]4C)C5(C)C)N4C[C@@H](C)N(O)[C@@H](C)C4)ccc3c2=O)c(F)c1 [Example 296, (3R, 5S)-N-[3-{2-[2-fluoro-4-(methyloxy)phenyl]eth-yl}-4-oxo-2-(3-pyridinyl)-3,4-dihydro-7-quinazolinyl]-4-hydroxy-3,5-dimethyl-N′-[(1R, 2S, 3S, 5S)-2,6,6-trimethylbicyclo[3.1.1]hept-3-yl]-1-piperazinecarboximida-mide] | – |
